One series deals with T1, human sEH (hsEH) (Homo sapiens, UniProt P34913).
T1 sequence (P34913 1-555): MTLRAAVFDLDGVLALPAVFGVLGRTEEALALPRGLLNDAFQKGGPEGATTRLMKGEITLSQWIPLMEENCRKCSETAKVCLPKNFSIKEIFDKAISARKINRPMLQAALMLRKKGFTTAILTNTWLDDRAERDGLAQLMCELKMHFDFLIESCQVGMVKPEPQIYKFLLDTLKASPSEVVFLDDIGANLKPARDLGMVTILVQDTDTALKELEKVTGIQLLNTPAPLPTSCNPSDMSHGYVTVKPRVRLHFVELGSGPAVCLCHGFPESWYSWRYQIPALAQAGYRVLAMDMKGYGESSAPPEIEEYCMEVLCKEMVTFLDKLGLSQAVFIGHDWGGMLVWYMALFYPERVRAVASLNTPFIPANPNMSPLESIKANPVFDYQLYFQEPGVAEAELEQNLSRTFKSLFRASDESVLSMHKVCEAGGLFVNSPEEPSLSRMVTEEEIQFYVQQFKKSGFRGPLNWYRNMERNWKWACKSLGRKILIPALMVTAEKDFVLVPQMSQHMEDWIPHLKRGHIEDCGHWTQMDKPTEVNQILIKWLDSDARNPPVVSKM
The experiment in a line: sEH inhibition, fluorescent-based assay (CMNPC substrate). The class given is biochemical. As to conditions: for fold difference (decrease) in hsEH potency: 17 vs 16 (oxygen for methylene), 18 vs 17 (hydrogen for methyl). As to the method:
The IC50 values reported herein were determined using a fluorescent-based assay (CMNPC as substrate).[16] The fluorescent assay was used with purified recombinant human, mouse, or rat sEH proteins. The enzymes were incubated at 30 °C with the inhibitors ([I]final = 0.4–100,000 nM) for 5 min in 100 mM sodium phosphate buffer (200 μL, pH 7.4) containing 0.1 mg/mL of BSA and 1% of DMSO. The substrate (CMNPC) was then added ([S]final = 5 μM). […] Results were obtained by regression analysis from a linear region of the curve.

The nature of series [1]: Microsomal stability. It counts as in vitro ADME, human. Conditions: after 60 min incubation, NADP, 37 °C. As to the method:
(§1) The human, rat, and mice recombinant microsomes employed were purchased from Tebu–Xenotech. […] Samples (75 μL) were taken from each well at 0, 10, 20, 40, and 60 min and transferred to a plate containing 4 °C 75 μL of acetonitrile and 30 μL of 0.5% formic acid in water were added for improving the chromatographic conditions. The plate was centrifuged ([…], 30 min) and supernatants were taken and analyzed by an ultraperformance liquid chromatograph–tandem mass spectrometer (Xevo-TQD, Waters) by employing a BEH C18 column and an isocratic gradient of 0.1% formic acid in water: 0.1% formic acid acetonitrile (60:40). The metabolic stability of the compounds was calculated from the logarithm of the remaining compounds at each of the time points studied.

The nature of series [2]: Microsomal stability. It counts as in vitro ADME, mice. Conditions: after 60 min incubation, NADP, 37 °C. As to the method: as §1
Series [3] is described as follows: Microsomal stability. As to conditions: after 60 min incubation, NADP, 37 °C. As to the method: as §1
The mark [4] stands for this setting: purified recombinant enzyme, average of three replicates.

In general, IC50 refers to the concentration at which inhibition is half-maximal. Regarding `CC12CC3CC(NC(=S)Nc4ccc(C(F)(F)F)cc4)(CC(C1)c1ccccc13)C2` [Compound 9, 1-(9-Methyl-5,6,8,9,10,11-hexahydro-7H-5,9:7,11-dimethanobenzo[9]annulen-7-yl)-3-(4-(trifluoromethyl)phenyl)thiourea], the IC50 at human sEH (hsEH) (setting [4]) came to 138 nM.

As for `Cc1ccc(OC(=O)NC23CC4CC(C)(CC(C2)c2ccccc24)C3)cc1` [Compound 11, p-Tolyl (9-Methyl-5,6,8,9,10,11-hexahydro-7H-5,9:7,11-dimethanobenzo[9]annulen-7-yl)carbamate], the IC50 on human sEH (hsEH) (setting [4]) was above 10000 nM; against human sEH (hsEH) (value given in the text) it was 12700 nM.

Consider `CC12CC3CC(NC(=O)Nc4ccc(F)c(F)c4F)(CC(C1)c1ccccc13)C2` [Compound 13, 1-(9-Methyl-5,6,8,9,10,11-hexahydro-7H-5,9:7,11-dimethanobenzo[9]annulen-7-yl)-3-(2,3,4-trifluorophenyl)urea], for which the IC50 on human sEH (hsEH) (setting [4]) was determined as 1 nM. In the series “Microsomal stability [1]”, the “microsomal stability, percentage of remaining compound (human)” value came to 7%. Also, the “microsomal stability, percentage of remaining compound (mice)” value in “Microsomal stability [2]” was found to be 0.2%.

Regarding `CC12CC3CC(NC(=O)Nc4ccc(F)c(F)c4F)(CC(C1)c1ccccc13)O2` [Compound 14, 1-(5-Methyl-1,5,6,7-hexahydro-1,5:3,7-dimethanobenzo[e]oxonin-3(2H)-yl)-3-(2,3,4-trifluorophenyl)urea], the IC50 on human sEH (hsEH) (setting [4]) came out at 20 nM. In addition, the “microsomal stability, percentage of remaining compound (human)” value in “Microsomal stability [1]” turned out to be 77%. Moreover, the “microsomal stability, percentage of remaining compound (mice)” value in the series “Microsomal stability [2]” was 23%. Besides, in “Microsomal stability [3]”, the “microsomal stability, percentage of remaining compound (rat)” value is reported as 33%.

On to `CC(=O)N1CCC(NC(=O)NC23CC4CC(C)(CC(C2)c2ccccc24)C3)CC1` [Compound 16, 1-(1-Acetylpiperidin-4-yl)-3-(9-methyl-5,6,8,9,10,11-hexahydro-7H-5,9:7,11-dimethanobenzo[9]annulen-7-yl)urea], for which the “microsomal stability, percentage of remaining compound (rat)” value in the series “Microsomal stability [3]” was “less than 1%”.

For `CC(=O)N1CCC(NC(=O)NC23CC4CC(C)(CC(C2)c2ccccc24)O3)CC1` [Compound 17, 1-(1-Acetylpiperidin-4-yl)-3-(5-methyl-1,5,6,7-tetrahydro-1,5:3,7-dimethanobenzo[e]oxonin-3(2H)-yl)urea], the “fold difference (decrease) in hsEH potency” value at human sEH (hsEH) came out at 300 fold. Moreover, the IC50 on human sEH (hsEH) (setting [4]) was 941 nM.

With `CC(=O)N1CCC(NC(=O)NC23CC4CC(CC(C2)c2ccccc24)O3)CC1` [Compound 18, 1-(1-Acetylpiperidin-4-yl)-3-(1,5,6,7-tetrahydro-1,5:3,7-dimethanobenzo[e]oxonin-3(2H)-yl)urea], the “fold difference (decrease) in hsEH potency” value on human sEH (hsEH) was above 10 fold. For the same molecule, the half-inhibitory concentration (IC50) at human sEH (hsEH) (setting [4]) was above 10000 nM.

`CC12CC3CC(NC(=O)N[C@H]4CC[C@H](Oc5ccc(C(=O)O)cc5)CC4)(CC(C1)c1ccccc13)O2` [Compound 21, 4-[((1r,4r)-4-(3-(5-Methyl-1,5,6,7-tetrahydro-1,5:3,7-Dimethanobenzo[e]oxonin-3(2H)-yl)ureido)cyclohexyl)oxy]benzoic Acid]: the IC50 at human sEH (hsEH) (setting [4]) was 28 nM. In addition, in the series “Microsomal stability [1]”, the “microsomal stability, percentage of remaining compound (human)” value was 90%. Further, the “microsomal stability, percentage of remaining compound (mice)” value in “Microsomal stability [2]” stood at 83%.
